Values of other authors as cited in patent US9181529B2, “Titration of differentiation medium components” (Cellular Dynamics International, Inc., priority 2010, dated 2015).
pIC50: −log10 of the molar value.

Tests used:
[1] = test system: pluripotent stem cell-derived cardiomyocytes
[2] = test system: ROCK2; settings: ATP-competitive, read-out: IC50 ROCK1/ROCK2

Compound	chronotropic effect [1]	also measured
CNC[C@H](O)c1cccc(O)c1 [phenylephrine]	positive chronotropic effect	
COc1ccc([C@@H]2Sc3ccccc3N(CCN(C)C)C(=O)[C@@H]2OC(C)=O)cc1 [diltiazem]		contractile activity [1]: inhibits contractile activity in a dose-dependent manner
CC(C)NCC(O)c1ccc(O)c(O)c1 (stereo not shown) [isoprenaline]	positive chronotropic effect	
